# Experimental data taken from patent publication US20230220035A1 (DONG-A ST CO., LTD., published 2023).
# *1 amine or outer side, *2 acyl side, *3 side chain or, on linkers, in order; H or OH if unused. Side-chain parts run from the residue outwards. [ ]: non-standard residue; d: D form. The star is where a group is joined. γGlu = O=C(O)[C@H](CCC(=O)[*:2])N[*:1]; C14 diacid = O=C(O)CCCCCCCCCCCCC(=O)*; Stearoyl = CCCCCCCCCCCCCCCCCC(=O)*; AEEA = NCCOCCOCC(=O)O; Aib = CC(C)(N)C(=O)O
# Columns and labels:
# [1] = in vivo; conditions: cynomolgus monkey, sc
# From the text: Cynomolgus monkeys were used to evaluate the pharmacokinetics in monkeys of the acylated oxyntomodulin peptide analogs according to the present invention.
# [2] = molecular target: GLP-1 receptor (Homo sapiens, UniProt P43220); assay: Human GLP-1 receptor activation assay (CRE-luciferase); type: cell-based; set-up: host or cells: CHO-K1; conditions: for Emax: CHO-K1, 6 h, read-out: GLP-1 receptor Maximum activation (% vs GLP-1); for EC50: CHO-K1 cells transiently transfected, luciferase, 6 hours, 0.1% BSA
# Protocol: (§1) Then, the resulting increased luciferase activity was evaluated as a measurement of the effect on each receptor activation.
# (§2) For positive control, endogenous ligand GLP-1 or glucagon was used for respective evaluation. The above-mentioned acylated oxyntomodulin peptide analogs of Comparative Example 8-12 were synthesized and used as comparative examples.
# (§3) After 3 hours of transfection, medium was exchanged to Alpha Minimal Essential Medium (α-MEM) comprising 10% fetal bovine serum (FBS). Next day, the medium was exchanged to α-MEM comprising the acylated oxyntomodulin peptide analog of the present invention and 0.1% bovine serum albumin (BSA). After 6 hours, dual luciferase assay reagent (Promega) was added in the same amount as the medium in which the cells were submerged, and firefly luciferase and Renilla luciferase activities were successively measured. Firefly luciferase activity values were corrected against Renilla luciferase activity to yield transfection efficiency.
# [3] = molecular target: glucagon receptor (Homo sapiens, UniProt P47871); assay: Human glucagon receptor activation assay (CRE-luciferase); type: cell-based; set-up: host or cells: CHO-K1; conditions: CHO-K1 cells transiently transfected; for Emax: 6 h, relative to glucagon, read-out: GCG receptor Maximum activation (% vs GCG); for EC50: 6 hours, 0.1% BSA, read-out: GCG receptor EC50
# Protocol: as §1, §2, §3
# [4] = molecular target: Human GLP-1 receptor (human, UniProt P43220); assay: cell-based or functional assay
# [5] = molecular target: Human glucagon receptor (human, UniProt P47871); assay: cell-based or functional assay
# GLP-1 receptor, sequence (P43220 24-463): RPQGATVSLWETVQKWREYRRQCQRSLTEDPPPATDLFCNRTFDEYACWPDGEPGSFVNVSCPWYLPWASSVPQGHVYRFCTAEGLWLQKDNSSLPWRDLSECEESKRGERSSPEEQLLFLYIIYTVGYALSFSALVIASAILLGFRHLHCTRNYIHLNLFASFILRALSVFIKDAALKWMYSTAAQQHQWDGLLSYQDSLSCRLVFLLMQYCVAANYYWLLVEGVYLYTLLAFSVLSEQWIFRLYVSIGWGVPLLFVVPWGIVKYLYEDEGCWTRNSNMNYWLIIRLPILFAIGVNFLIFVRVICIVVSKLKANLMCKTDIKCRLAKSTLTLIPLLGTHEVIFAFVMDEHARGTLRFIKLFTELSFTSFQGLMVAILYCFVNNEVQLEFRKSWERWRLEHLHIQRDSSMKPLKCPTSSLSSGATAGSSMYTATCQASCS
# glucagon receptor, sequence (P47871 26-477): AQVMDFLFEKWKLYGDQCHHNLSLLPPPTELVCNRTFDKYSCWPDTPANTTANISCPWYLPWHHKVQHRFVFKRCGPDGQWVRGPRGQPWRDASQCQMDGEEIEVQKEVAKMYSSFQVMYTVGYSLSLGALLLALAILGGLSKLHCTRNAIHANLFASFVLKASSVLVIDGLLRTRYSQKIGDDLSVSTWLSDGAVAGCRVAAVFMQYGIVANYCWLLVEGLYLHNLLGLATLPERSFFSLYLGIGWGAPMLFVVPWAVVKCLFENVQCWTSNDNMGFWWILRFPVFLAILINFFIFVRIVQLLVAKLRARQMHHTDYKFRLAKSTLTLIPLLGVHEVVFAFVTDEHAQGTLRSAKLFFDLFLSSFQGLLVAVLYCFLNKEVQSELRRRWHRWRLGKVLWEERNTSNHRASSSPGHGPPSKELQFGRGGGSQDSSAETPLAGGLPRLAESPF
Molecule,half-life ([1]; Monkey PK (S.C. half-life)) [min],half-life ([1]; monkey PK half-life) [min],Emax [2] [%],EC50 [2] [nM],Emax [3] [%],EC50 [3] [nM],EC50 [4] [pM],Maximum activation (% vs GLP-1) [4] [%],EC50 [5] [pM],Maximum activation (% vs GCG) [5] [%]
CCCCCCCCCCCCCCCCCC(=O)N[C@@H](CCC(=O)NCCOCCOCC(=O)NCCOCCOCC(=O)NCCCC[C@H](NC(=O)[C@H](CC(=O)O)NC(=O)[C@H](CO)NC(=O)[C@@H](NC(=O)[C@H](Cc1ccccc1)NC(=O)[C@@H](NC(=O)CNC(=O)[C@H](CCC(N)=O)NC(=O)C(C)(C)NC(=O)[C@@H](N)Cc1c[nH]cn1)[C@@H](C)O)[C@@H](C)O)C(=O)N[C@@H](CO)C(=O)N[C@@H](CCCCN)C(=O)N[C@@H](Cc1ccc(O)cc1)C(=O)N[C@@H](CC(C)C)C(=O)N[C@@H](CC(=O)O)C(=O)NC(C)(C)C(=O)N[C@@H](CCCNC(=N)N)C(=O)N[C@@H](CCCNC(=N)N)C(=O)N[C@@H](C)C(=O)N[C@@H](CCC(N)=O)C(=O)N[C@@H](CC(=O)O)C(=O)N[C@@H](Cc1ccccc1)C(=O)N[C@H](C(=O)N[C@@H](CCC(N)=O)C(=O)N[C@@H](Cc1c[nH]c2ccccc12)C(=O)N[C@@H](CC(C)C)C(=O)N[C@@H](CCSC)C(=O)N[C@@H](CC(N)=O)C(=O)N[C@H](C(=O)N[C@@H](CCCCN)C(=O)N[C@@H](CCC(=O)O)C(=O)N[C@@H](Cc1ccc(O)cc1)C(=O)N[C@@H](CCC(=O)O)C(=O)N[C@@H](CCCCNC(=O)CCCCCCCCCCCCC(N)=O)C(=O)N[C@@H](CCC(=O)O)C(=O)N[C@@H](Cc1ccc(O)cc1)C(=O)N[C@@H](CCC(=O)O)C(=O)O)[C@@H](C)O)C(C)C)C(=O)O [Compound 10],< 360,< 720,105,< 0.1,110,< 0.1,,,,
CCCCCCCCCCCCCCCCCC(=O)N[C@@H](CCC(=O)NCCOCCOCC(=O)NCCOCCOCC(=O)NCCCC[C@H](NC(=O)[C@H](CC(=O)O)NC(=O)[C@H](CO)NC(=O)[C@@H](NC(=O)[C@H](Cc1ccccc1)NC(=O)[C@@H](NC(=O)CNC(=O)[C@H](CCC(N)=O)NC(=O)C(C)(C)NC(=O)[C@@H](N)Cc1c[nH]cn1)[C@@H](C)O)[C@@H](C)O)C(=O)N[C@@H](CO)C(=O)N[C@@H](CCCCN)C(=O)N[C@@H](Cc1ccc(O)cc1)C(=O)N[C@@H](CC(C)C)C(=O)N[C@@H](CC(=O)O)C(=O)NC(C)(C)C(=O)N[C@@H](CCCNC(=N)N)C(=O)N[C@@H](CCCNC(=N)N)C(=O)N[C@@H](C)C(=O)N[C@@H](CCC(N)=O)C(=O)N[C@@H](CC(=O)O)C(=O)N[C@@H](Cc1ccccc1)C(=O)N[C@H](C(=O)N[C@@H](CCC(N)=O)C(=O)N[C@@H](Cc1c[nH]c2ccccc12)C(=O)N[C@@H](CC(C)C)C(=O)N[C@@H](CCSC)C(=O)N[C@@H](CC(N)=O)C(=O)N[C@H](C(=O)N[C@@H](CCCCN)C(=O)N[C@@H](CCC(=O)O)C(=O)N[C@@H](Cc1ccc(O)cc1)C(=O)N[C@@H](CCC(=O)O)C(=O)N[C@@H](CCCCNC(=O)CCCCCCCCCCCCCCC(N)=O)C(=O)N[C@@H](CCC(=O)O)C(=O)N[C@@H](Cc1ccc(O)cc1)C(=O)N[C@@H](CCC(=O)O)C(=O)O)[C@@H](C)O)C(C)C)C(=O)O [Compound 11],360 to 720,< 720,92.8,< 0.1,98.5,< 0.1,,,,
CCCCCCCCCCCCCCCCCC(=O)N[C@@H](CCC(=O)NCCOCCOCC(=O)NCCOCCOCC(=O)NCCCC[C@H](NC(=O)[C@H](CC(=O)O)NC(=O)[C@H](CO)NC(=O)[C@@H](NC(=O)[C@H](Cc1ccccc1)NC(=O)[C@@H](NC(=O)CNC(=O)[C@H](CCC(N)=O)NC(=O)C(C)(C)NC(=O)[C@@H](N)Cc1c[nH]cn1)[C@@H](C)O)[C@@H](C)O)C(=O)N[C@@H](CO)C(=O)N[C@@H](CCCCN)C(=O)N[C@@H](Cc1ccc(O)cc1)C(=O)N[C@@H](CC(C)C)C(=O)N[C@@H](CC(=O)O)C(=O)NC(C)(C)C(=O)N[C@@H](CCCNC(=N)N)C(=O)N[C@@H](CCCNC(=N)N)C(=O)N[C@@H](C)C(=O)N[C@@H](CCC(N)=O)C(=O)N[C@@H](CC(=O)O)C(=O)N[C@@H](Cc1ccccc1)C(=O)N[C@H](C(=O)N[C@@H](CCC(N)=O)C(=O)N[C@@H](Cc1c[nH]c2ccccc12)C(=O)N[C@@H](CC(C)C)C(=O)N[C@@H](CCSC)C(=O)N[C@@H](CC(N)=O)C(=O)N[C@H](C(=O)N[C@@H](CCCCN)C(=O)N[C@@H](CCC(=O)O)C(=O)N[C@@H](Cc1ccc(O)cc1)C(=O)N[C@@H](CCC(=O)O)C(=O)N[C@@H](CCCCNC(=O)COCCOCCNC(=O)COCCOCCNC(=O)COCCOCCNC(=O)CCCCCCCCCCCCCCC)C(=O)N[C@@H](CCC(=O)O)C(=O)N[C@@H](Cc1ccc(O)cc1)C(=O)N[C@@H](CCC(=O)O)C(=O)O)[C@@H](C)O)C(C)C)C(=O)O [Compound 12],360 to 720,< 720,102,< 0.1,89.6,< 0.1,,,,
H-H[Aib]QGTFTSDK([AEEA-AEEA-γGlu-Stearoyl])SKYLD[Aib]RRAQDFVQWLMNTKEYEK(C14 diacid)EYE-OH (SMILES CCCCCCCCCCCCCCCCCC(=O)N[C@@H](CCC(=O)NCCOCCOCC(=O)NCCOCCOCC(=O)NCCCC[C@H](NC(=O)[C@H](CC(=O)O)NC(=O)[C@H](CO)NC(=O)[C@@H](NC(=O)[C@H](Cc1ccccc1)NC(=O)[C@@H](NC(=O)CNC(=O)[C@H](CCC(N)=O)NC(=O)C(C)(C)NC(=O)[C@@H](N)Cc1c[nH]cn1)[C@@H](C)O)[C@@H](C)O)C(=O)N[C@@H](CO)C(=O)N[C@@H](CCCCN)C(=O)N[C@@H](Cc1ccc(O)cc1)C(=O)N[C@@H](CC(C)C)C(=O)N[C@@H](CC(=O)O)C(=O)NC(C)(C)C(=O)N[C@@H](CCCNC(=N)N)C(=O)N[C@@H](CCCNC(=N)N)C(=O)N[C@@H](C)C(=O)N[C@@H](CCC(N)=O)C(=O)N[C@@H](CC(=O)O)C(=O)N[C@@H](Cc1ccccc1)C(=O)N[C@H](C(=O)N[C@@H](CCC(N)=O)C(=O)N[C@@H](Cc1c[nH]c2ccccc12)C(=O)N[C@@H](CC(C)C)C(=O)N[C@@H](CCSC)C(=O)N[C@@H](CC(N)=O)C(=O)N[C@H](C(=O)N[C@@H](CCCCN)C(=O)N[C@@H](CCC(=O)O)C(=O)N[C@@H](Cc1ccc(O)cc1)C(=O)N[C@@H](CCC(=O)O)C(=O)N[C@@H](CCCCNC(=O)CCCCCCCCCCCCC(=O)O)C(=O)N[C@@H](CCC(=O)O)C(=O)N[C@@H](Cc1ccc(O)cc1)C(=O)N[C@@H](CCC(=O)O)C(=O)O)[C@@H](C)O)C(C)C)C(=O)O) [Compound 1],,,,,,,< 100,102,< 100,107
